Source: a melting point compilation (Tetko et al.; mined from patent text by program, amines drawn as free bases though some values may be those of a salt)

| SMILES | melting point |
| --- | --- |
| CCCCc1ncc(/C=C2\C(=O)NC(=O)N2Cc2ccccc2)n1Cc1ccc(C(=O)O)cc1 | 297 to 298 °C |
| CN1CCN(CCCNC(=O)CN2CCCC2=O)CC1 | 93 °C |
| CCOC(=O)C=C(C)C=CC=C(C)C=Cc1c(Cl)cc(OC)cc1Cl | 117 to 118 °C |
| CN1C(=O)SCC1C(=O)NCCO[N+](=O)[O-] (configuration not stated) | 105 to 106 °C |
| O=C1c2ccccc2CNc2nc3ccc(Br)cc3c(Cl)c21 | 260 to 264 °C |
| CS(=O)(=O)c1ccc(C2=C(c3ccc(F)cc3)CC3(CCC3)C2)cc1 | 123 to 124 °C |
| CNS(=O)(=O)c1cc(C(=O)OC)cc(N2CCCC2)c1Oc1ccccc1 | 138 to 139 °C |
| O=Cc1cc(O)c(O)c(C=O)c1CCCCC(=O)O | 148 to 152 °C |
| CC(C)NC(=O)N1CCC(CN2C(=O)C3(COc4cc5c(cc43)CCO5)c3ccccc32)C1 (configuration not stated) | 107 to 115 °C |
| O=C(Cc1ccccc1Cl)c1ccc(I)cc1 | 105 to 106 °C |
| NP(N)(=O)NCCCBr | 60 to 65 °C |
| CC1=NC(NC(=O)Nc2cccc(C)c2)C(=O)N(CC(=O)NC(C)(C)C)c2c(C)cccc21 (configuration not stated) | 243 to 244 °C |
| COC(CCc1cc(C(F)(F)F)cc(C(F)(F)F)c1)C(Cc1csc2ccccc12)NC(C)=O (configuration not stated) | 120 to 121 °C |
| CCCc1c(OCCCCCOc2ccc(C(=O)c3ccccc3CC(=O)O)cc2CCC(=O)O)ccc2c1OCCC2=O | 105 to 108 °C |
| COc1cc2c(cc1OCc1ccccc1)C1Cc3c(Cl)cc(OC)c(OCCOCCO)c3CN1CC2 (configuration not stated) | 122 °C |
| NC(=O)CC(=O)NCCS | 100 °C |
| OCC(COc1noc2ccc(Cl)cc12)NC(c1ccccc1)(c1ccccc1)c1ccccc1 (configuration not stated) | 142 to 144 °C |
| CC(C)(C)C(=O)C(Br)C(c1ccc(Cl)cc1Cl)S(=O)(=O)c1ccccc1 (configuration not stated) | 135 to 136 °C |
| Nc1nc(SCc2nc(C3CC3)no2)ncc1Cc1ccccc1 | 94 °C |
| O=C(c1ccc(Cl)cc1)c1cc(CBr)ccc1Cl | 81 to 83 °C |
| Nc1ccc(Sc2ccccc2)cn1 | 127 to 129 °C |
| Cc1ccccc1-c1nc(-c2cccc(Cl)c2)nn1C | 77 to 78 °C |
| COC(=O)c1ccc(C(=O)Nc2ccc3c(c2)C(C)(C)CCC3(C)C)nc1 | 176 to 177 °C |
| Cc1c(NC(=O)CC(C)(C)C)cc2c(c1C)OC(C)(C)C2(O)c1ccc(Br)cc1 (configuration not stated) | 118 to 119 °C |

| SMILES | melting point |
| --- | --- |
| COc1ccc(-c2cc3cc(F)c(F)cc3[nH]2)cc1NS(=O)(=O)c1cccc(C#N)c1 | 239 to 242 °C |
| O=C(O)c1cccc2c1CCc1ccccc1S2 | 186 to 187 °C |
| CN(C)C(=O)C(C)(C)CCCCC(=O)CCCCC(C)(C)C(=O)O | 91.5 to 93.5 °C |
| Cc1cccc(C)c1N1C(=O)C(=O)N(C)C1=S | 144 to 146 °C |
| Nc1ncc2cc(-c3ccccc3)c(O)nc2n1 | 390 to 395 °C |
| CC(=O)OCC(CCn1cnc2c(Cl)nc(N)nc21)COC(C)=O | 135 to 137 °C |
| CC[C@H]1[C@H](O)C2(CC2)C(=O)N1c1ccc(C#N)c(C(F)(F)F)c1 | 106 to 110 °C |
| COC(=O)c1cncn1C1c2ccccc2C=CC1(C)C (configuration not stated) | 60 to 61 °C |
| COC(=O)C#CC(=O)c1cc(OC)ccc1OC | 70 to 71 °C |
| CN(c1cccc2cc(C3=NCC4(CCN(S(C)(=O)=O)CC4)S3)[nH]c12)S(=O)(=O)c1cccs1 | 251 °C |
| COC(=O)[C@H](Cc1ccc(O)cc1)NC(=O)C1(NC(=O)[C@@H](SC(C)=O)C(C)C)CCCC1 | 157 to 158 °C |
| O=c1cc(-c2ccccc2)cc(-c2ccccc2)[nH]1 | 209 to 212 °C |
| O=C1c2ccccc2CC(=NO)c2ccccc21 | 186 °C |
| CCCOC(=O)c1cn(CC)c2nc(N3CCNCC3)c(F)cc2c1=O | 133 to 135 °C |
| CC(=O)N1CCc2cc(C(=O)CCCN3CCC(c4noc5cc(F)ccc45)CC3)sc2C1 | 145 to 147 °C |
| Cc1nc2ccccc2c(=O)n1-c1ccccc1C#N | 165 to 166 °C |
| CC1N=C(c2ccccc2Cl)c2c(ccc(NC(=O)NC3CCC(O)CC3)c2Br)N(C)C1=O (configuration not stated) | 226 to 227 °C |
| O=C(Nc1ccc(C(F)(F)F)cc1)C12CC3CC(CC(C3)C1)C2 | 189 to 193 °C |
| CCCCN(CCCC)C(=O)c1cc2ccccc2c(-c2ccccc2)n1 | 62 °C |
| CC(C)(C)OC(=O)N1CC2CN(Cc3ccccc3)CC(C1)O2 | 100 to 102 °C |
| O=C(c1ccc(F)cc1)N(CCCCn1ccnc1)C1=Nc2cccc3cccc1c23 | 109 to 110 °C |
| COc1ccc(C(=O)C2C(Cl)=CC=CC2(C)Cl)cc1Br (configuration not stated) | 159 °C |
| CCCCCCCCCCC(O)C(O)CCC(O)C1CCC(=O)O1 (configuration not stated) | 99 to 100 °C |
| CCOc1ccc2ccc(NC(=O)c3ccc(OC)cc3)nc2n1 | 152 °C |

Other lines, results leading:

| melting point | SMILES |
| --- | --- |
| 41 °C | CCCCCCCCN(C)C(=O)CC(=O)N(C)CCCCCCCC |
| 184 to 187 °C | CCOC(=O)c1[nH]c(=O)n(C)c(=O)c1OCc1ccccc1 |
| 226 to 228 °C | O=C(Nc1ccnnc1)NC1CCCCCC1 |
| 225 to 226 °C | Cc1cc(Nc2ccccn2)c(S(C)(=O)=O)cc1C(=O)N=C(N)N |
| 89 to 90 °C | CNc1cc(Oc2cccc(C(F)(F)F)c2)nc(C(=O)NC(C)C)c1 |
| 215 to 217 °C | Cc1ccccc1-c1cn2c(n1)-c1ccccc1Nc1ncccc1-2 |
| 45 to 46 °C | COc1ccc(OCCCCCCCc2cc(C)no2)c(Cl)c1 |
| 188 to 191 °C | Cc1nc(N2CCN(Cc3ccc(F)cc3)C2=O)sc1C(=O)NCc1cocn1 |
| 136 to 138 °C | COC(=O)c1ccc(OCC2CC(=O)N(c3ccc(N)cc3)C2)cc1 (configuration not stated) |
| 181 to 182 °C | CC(C)c1nccc2c(CC(=O)O)cccc12 |
| 166 to 167 °C | Cc1ccc(CNC(=O)c2nc(N3CCOCC3)n(C)c(=O)c2O)cc1F |
| 105 to 107 °C | CCOC(=O)C(=O)Nc1cccc2ccccc12 |
| 140 to 142 °C | O=C(Nc1ccc(OCc2ccccc2)cc1)C(Br)CCBr (racemic) |
| 101 to 103 °C | OCCCCCCCCOc1ccc(-c2ccccc2)cc1 |
| 161 to 162 °C | COc1cccc([C@H]2O[C@H](CC(=O)N[C@H](CCSC)C(=O)O)C(=O)N(CC(C)(C)C)c3ccc(Cl)cc32)c1OC |
| 126 to 127 °C | CS(=O)(=O)c1ccc(-c2cnn(-c3ccc(F)c(F)c3)c(=O)c2OCCC2C=CCC2)cc1 (configuration not stated) |
| 192 to 194 °C | Cc1cc(=O)n2nc(S(=O)(=O)Cc3ccc(Cl)cc3)sc2n1 |
| 156 to 158 °C | Cc1sc2cc3ccccc3c(-c3ccc(O)c(C4CCCC4)c3)c2c1C |
| 147 °C | Cc1nc(CS(C)(=O)=O)nc(OC(=O)NN2CCOCC2)c1C |
| 230 to 231 °C | Cc1nc(-c2cccnc2)sc1-c1ccnc(Nc2ccc(N3CCOCC3)c(Cl)c2)n1 |
| 245 °C | Cn1c(=NC(=S)Nc2ccccc2)n(C)c2ccccc21 |
| 213 to 214 °C | Cc1c(F)cc(C(=N)N)c(Oc2ncccc2Oc2cccnc2)c1F |
| 65 to 67 °C | CCOC(=O)/C=C/c1ccc(OCCCOCCOC)cc1Oc1ncc(C(F)(F)F)cc1Cl |
| 121 to 124 °C | COc1ccccc1NC(=O)Nc1nc(N2CCC(O)CC2)nc(N(CCC(=O)O)Cc2ccc(Cl)c(Cl)c2)n1 |
